Laboratory results as given in ChEMBL document CHEMBL2074221, “Breast cancer resistance protein (BCRP/ABCG2) induces cellular resistance to HIV-1 nucleoside reverse transcriptase inhibitors” (Mol Pharmacol, 2003).
*1 amine or outer side, *2 acyl side, *3 side chain or, on linkers, in order; H or OH if unused. Where a SMILES comes first, the peptide text is derived from it. Bridges are numbered along the chain shown (N, C = ends). Roman numbers before positions name the chains, in order. [ ]: non-standard residue; d: D form. Actinocin(9to1) = Cc1c2oc3c(C)ccc(C(=O)[*:1])c3nc-2c(C(=O)[*:2])c(N)c1=O; NMeV = CN[C@H](C(=O)O)C(C)C; Sar = CNCC(=O)O

How the values were obtained:
[1] = target: T1, Broad substrate specificity ATP-binding cassette transporter ABCG2 (Homo sapiens, UniProt Q9UNQ0); assay: TP_TRANSPORTER: Anti-HIV-1 activity in MT-4 and MT-4/DOX500; assay type: functional, cell-based
T1 sequence (Q9UNQ0 whole entry): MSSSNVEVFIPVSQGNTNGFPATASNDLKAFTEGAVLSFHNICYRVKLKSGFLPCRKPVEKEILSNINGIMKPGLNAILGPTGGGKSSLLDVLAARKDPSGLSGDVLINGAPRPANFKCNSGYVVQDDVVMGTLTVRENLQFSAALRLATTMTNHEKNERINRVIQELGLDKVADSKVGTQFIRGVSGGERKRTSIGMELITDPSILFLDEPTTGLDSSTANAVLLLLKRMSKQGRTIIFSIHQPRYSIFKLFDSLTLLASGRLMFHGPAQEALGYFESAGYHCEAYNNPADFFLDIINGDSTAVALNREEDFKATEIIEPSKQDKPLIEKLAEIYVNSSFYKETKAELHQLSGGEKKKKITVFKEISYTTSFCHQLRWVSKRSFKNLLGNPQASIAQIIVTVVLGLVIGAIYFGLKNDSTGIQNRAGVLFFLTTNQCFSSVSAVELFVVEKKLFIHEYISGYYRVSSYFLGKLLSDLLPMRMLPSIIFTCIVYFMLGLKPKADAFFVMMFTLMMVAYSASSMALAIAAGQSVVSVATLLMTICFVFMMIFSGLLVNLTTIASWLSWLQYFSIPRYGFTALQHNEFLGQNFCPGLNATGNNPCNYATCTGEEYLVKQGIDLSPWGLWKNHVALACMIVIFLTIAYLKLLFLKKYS

[2] = target: T1, Broad substrate specificity ATP-binding cassette transporter ABCG2; assay: TP_TRANSPORTER: Cytotoxicity in MT-4 and MT-4/DOX500 cells; assay type: functional, cell-based

| Activity [1] | SMILES | Activity [2] |
| --- | --- | --- |
| substrate [] | Nc1ccn([C@@H]2CS[C@H](CO)O2)c(=O)n1 [LAMIVUDINE] | – |
| – | Cc1c2oc3c(C)ccc(C(=O)N[C@@H]4C(=O)N[C@H](C(C)C)C(=O)N5CCC[C@H]5C(=O)N(C)CC(=O)N(C)[C@@H](C(C)C)C(=O)O[C@@H]4C)c3nc-2c(C(=O)N[C@@H]2C(=O)N[C@H](C(C)C)C(=O)N3CCC[C@H]3C(=O)N(C)CC(=O)N(C)[C@@H](C(C)C)C(=O)O[C@@H]2C)c(N)c1=O [DACTINOMYCIN] (I: T[dV]P[Sar][NMeV] / II: T[dV]P[Sar][NMeV]; ester I:1-I:C, II:1-II:C; linker I:N-II:N via Actinocin(9to1)) | substrate [] |
| – | COc1cc([C@@H]2c3cc4c(cc3[C@@H](O[C@@H]3O[C@@H]5CO[C@@H](C)O[C@H]5[C@H](O)[C@H]3O)[C@H]3COC(=O)[C@H]23)OCO4)cc(OC)c1O [ETOPOSIDE] | substrate [] |
| – | CCc1c2c(nc3ccc(O)cc13)-c1cc3c(c(=O)n1C2)COC(=O)[C@]3(O)CC [7-ETHYL-10-HYDROXYCAMPTOTHECIN] | substrate [] |
| – | O=C1c2c(O)ccc(O)c2C(=O)c2c(NCCNCCO)ccc(NCCNCCO)c21 [MITOXANTRONE] | substrate [] |
| – | CCc1c2c(nc3ccc(OC(=O)N4CCC(N5CCCCC5)CC4)cc13)-c1cc3c(c(=O)n1C2)COC(=O)[C@]3(O)CC [IRINOTECAN] | substrate [] |
| – | COc1cccc2c1C(=O)c1c(O)c3c(c(O)c1C2=O)C[C@@](O)(C(=O)CO)C[C@@H]3O[C@H]1C[C@H](N)[C@H](O)[C@H](C)O1 [DOXORUBICIN] | substrate [] |
| substrate [] | Cc1cn([C@H]2C[C@H](N=[N+]=[N-])[C@@H](CO)O2)c(=O)[nH]c1=O [ZIDOVUDINE] | substrate [] |
